Data from a melting point compilation (Tetko et al.; mined from patent text by program, amines drawn as free bases though some values may be those of a salt).

Structure (SMILES) | melting point [°C]
O=C(O)c1ccoc1Cl | 138 to 141
Cc1ccc(-c2occc2C(=O)O)cc1 | 166
O=C(O)c1cc(S(=O)(=O)Oc2ccc(-c3ccc(-c4c(Cc5ccccc5)oc5ccccc45)cc3)cc2)ccc1O | 171 to 173
COc1ccc(/C=C/c2cc(/C=C/c3ccc4[nH]ccc4c3)n[nH]2)cc1OCc1ccccn1 | 109 to 118
Nc1nc(-c2cc(Cl)ccc2Cl)nc(N2CCN(c3ccccc3)CC2)n1 | 203 to 206
CC(C)CN1CCC(c2ccc(Br)cc2)CC1 | 36 to 37
CS(=O)(=O)c1ccc(-n2nc(C(F)(F)F)cc2-c2ccc(-c3ccco3)cc2)cc1F | 129 to 130
Cc1oc(-c2ccccc2)nc1COc1ccc(Cn2cc(C=O)c(-c3cccs3)n2)cc1 | 136 to 137
Cc1cc(C)c2c(c1O)C(=O)C(c1ccccc1)C2 (stereo unspecified) | 90.5 to 91
CCOC(=O)c1csc(Cc2ccc([N+](=O)[O-])cc2)n1 | 122 to 123
COc1ccc2[nH]cc(C#N)c2c1 | 147
CC(C)(C)OC(=O)N1CCC(CNc2c([N+](=O)[O-])cnc3cc(-c4ccccc4)ccc23)CC1 | 153 to 154
N#Cc1ccc(OCc2cccnc2)cc1F | 105 to 110
CN1CCC(N(C)C(=O)c2ccc3nonc3c2)CC1 | > 260
CCCCCCCCCCCCCCC(=O)C(=O)NC(C=CC(=O)OC)CCCC (stereo unspecified) | 48 to 50
Cn1nc(-c2nc(Br)c(N)nc2-c2ccccc2)ccc1=O | 220 to 222
Cn1cc(C2=C(c3cn(C(=O)C(C)(C)C)c4cc([N+](=O)[O-])ccc34)C(=O)NC2=O)c2ccccc21 | > 245
CC(=O)OCC1OC(n2c(Cl)nc3c(Cl)cc(Cl)cc32)C(OC(C)=O)C1OC(C)=O (stereo unspecified) | 165 to 167
OCC1(CO)CN(Cc2ccccc2)C1 | 86 to 87
O=C(Nc1cccc2c1C(=O)c1c-2n[nH]c1-c1ccc(N2CCC(N3CCOCC3)CC2)cc1)NN1CCOCC1 | 249
COc1ccc(-n2nc3c(cc2=O)CCSc2sccc2-3)cc1 | 126 to 128
CN(C)Nc1cc(F)ccc1[N+](=O)[O-] | 67 to 71
Oc1cccc(C2CCCN2Cc2ccccc2)c1 (stereo unspecified) | 113 to 115

Structure (SMILES) | melting point [°C]
COCc1cc(C)nc2nc(S(=O)(=O)Nc3c(C)cccc3Cl)nn12 | 227
CN1CCN(c2cccc3ccc(Nc4ccc([N+](=O)[O-])cn4)cc23)CC1 | 121 to 125
CCC(C)(C)Nc1c(NCc2cc(Cl)ccc2Cl)c(=O)c1=O | 195 to 196
COc1ccc2c(c1OC)CCC(NC(C)=O)C2O (stereo unspecified) | 184 to 186
N=C(N)N1CCC(CCC(=O)O)CC1 | > 275
CCOC(=O)C1CCN(CC2(C)Cc3c(C)c(N)c(C)c(C)c3O2)CC1 (stereo unspecified) | 74 to 76
O=C(O)c1c[nH]c2c(OCC3CN(Cc4ccccc4)CCN3Cc3ccccc3)c(F)c(F)cc2c1=O (stereo unspecified) | 158 to 159
COc1ccc(Nc2nc(NC3CCCCCC3)nc(Oc3ccccc3I)n2)cc1Cl | 206 to 208
O=c1nc(-c2ccc(Sc3ccc(Cl)cc3)nc2)sc2ccccc12 | 222
CNC(=O)N/N=C1/C(=O)N(CCN(C(C)C)C(C)C)c2ccc(C)cc21 | 158
O=C(O)CCC1(c2cccc(Cl)c2)NC(=O)NC1=O (stereo unspecified) | 196 to 217
Fc1ccc(CC2CCN(CCOc3ccc4c(c3)=NC(=S)N=4)CC2)cc1 | 278 to 280
CC1(C)CCC(C)(C)c2cc(-c3cccc(-c4ccc(C(=O)O)cc4)c3O)ccc21 | 121
CCC1(CC)c2cc(N)ccc2-c2ccc(-c3nc4ccccc4s3)cc21 | 206 to 207
CCOC(=O)c1c(O)cc(C(F)(F)Cl)nc1C(F)(F)F | 56.5 to 58.5
O=Cc1ncn2c1[C@@H]1CCCN1C(=O)c1c(Cl)cccc1-2 | 224 to 225
O=S1(=O)N=C(c2ccccc2)c2ccccc21 | 118
CC(=O)Nc1ncc(C)cc1Br | 65 to 66
O=C(O)c1ccc2c(Br)cccc2c1 | 248 to 250
Cc1c(C(=O)Nc2ccc(N3CCC(N4CCOCC4)CC3)c(C#N)c2)cnn1-c1ccc(I)cc1 | 280
NC(=S)Nc1ncccn1 | 262 to 264
CCc1[nH]n(C2CCCC2)c2nc(-c3cc(C)nc(Cl)c3)nc(=O)c1-2 | 277 to 278
CC(=O)OCC1COc2c(ccc(F)c2F)N1 (stereo unspecified) | 73 to 74

Structure (SMILES) | melting point [°C]
N#Cc1c[nH]c(C(N)=O)c1 | 253 to 256
CC(=O)N1Cc2c(-c3noc(C4CC4)n3)ncn2-c2ccccc21 | 187 to 188
CS(=O)(=O)Nc1cc2occ(NC=O)c(=O)c2cc1Oc1ccccc1 | 236 to 238
CN1C(=O)C(c2cccc(Br)c2)(c2c[nH]c(C=O)c2)N=C1N (stereo unspecified) | 142 to 151
CC(=O)NC(=Cc1cccnc1)C(=O)O | 191 to 192
COC(=O)c1c(Cl)cc(C)nc1Oc1c(C)cc(C)cc1C | 127 to 128
Cn1cc(C#N)c(Br)c1Br | 138 to 139
CC1(C)Oc2ccsc2C(N2CCCC2=O)C1O (stereo unspecified) | 154 to 155
O=C(O)Cc1noc(CC(=O)O)n1 | 109 to 111
O=C(O)c1cc(NCc2c(F)c(F)c(C(F)(F)F)c(F)c2F)ccc1Br | 70
CC(=O)OC1CCC2C3CCC4CC(O[Si](C)(C)C(C)(C)C)CCC4C3CCC12C (stereo unspecified) | 89 to 90
O=c1c2c([nH]c3cn[nH]c13)CCCC2 | > 325
COc1ccccc1OC1CCN(c2nc(-c3ccccc3)nc3ccccc23)C1 (stereo unspecified) | 142 to 144
O=C(OCc1ccccc1)c1ccc2cc(-c3ccc(CCCO)c(C45CC6CC(CC(C6)C4)C5)c3)ccc2c1 | 176
COC(=O)c1ccc2cc(OCc3cccc(COc4ccc5cc(C(=O)OC)ccc5c4)c3)ccc2c1 | 177 to 178
COc1cc(CCCC2OC(=O)NC2=O)cc(OC)c1O (stereo unspecified) | 155 to 156
C=CCSc1nnc(OCC)c2c1CCCC2 | 39 to 41
CC12CCC3c4ccc(O)cc4CCC3C1CCC2OC(=O)c1cccnc1 (stereo unspecified) | 221 to 222
CC(=O)OC1CCC2(C)C(=CCC3C2CC(c2cccnc2)C2(C)C=CCC32)C1 (stereo unspecified) | 144 to 145
Cc1ccnc2c1N=C(C#N)c1cccnc1N2C1CC1 | 192 to 193
C[C@]12CCC(=O)C=C1CCc1cc(Cl)ccc12 | 94 to 96
CCc1cc(Oc2ccc([C@@H]3OC(=O)N[C@@H]3Cc3cccc(OC(F)(F)C(F)F)c3)cc2)ccc1Cl (racemic) | 100 to 101
O=C(O)c1ccc(F)cc1Nc1ccc(I)cc1Cl | 238 to 239

Continued, values first:

melting point [°C] | Structure (SMILES)
161 to 162 | NC(=O)CNC(=O)c1cccc(-c2ccc(F)c3cc(Cc4ccc(F)c(F)c4)sc23)c1
124 | CC(=O)OC1C(C)OC(Sc2ccccc2)C(OCc2ccccc2)C1OC(C)=O (stereo unspecified)
154 to 155 | Nc1ccccc1NC(=O)c1ccc(CNC(=O)COc2cccnc2)cc1
215 | CCOc1cc(-c2cc(C(F)(F)F)n3ncc(C(=O)Nc4cccc(S(C)(=O)=O)c4)c3n2)ccc1C(F)(F)F
105 to 106 | CON(C)C(=O)c1ccc(-c2ccc(CBr)cc2)cc1
112 to 115 | CCOC(=O)CNc1ncccc1NC(=O)c1ccc(C)s1
287 to 288 | CC(C)(C)C(=O)Nc1nc(Nc2cccc(Br)c2)c2c(n1)[nH]c1ccccc12
120 to 121 | CC(C#N)(COc1ccc(Cl)cc1)NS(=O)(=O)Cc1ccccc1 (stereo unspecified)
171 to 173 | CCCNC(=O)C1(CCCCc2ccc(NC(=O)c3ccccc3)cc2)c2ccccc2-c2ccccc21
182 to 184 | Cn1c(COc2ccc(CC3SC(=O)NC3=O)cc2)nc2ccc(Oc3ccc(NC(=O)C4CCCCC4)cc3)cc21 (stereo unspecified)
55 to 56.5 | C=CCc1cccc(CC(NC(C)=O)C(=O)OCc2ccccc2)c1 (stereo unspecified)
145 to 147 | COc1ccc2c(C(=O)N(CC(=O)O)C(=O)N(C)C)cccc2c1C(F)(F)F
209 | Nc1ccc(C(=O)N2CCN(NC(=O)c3ccc(F)cc3)CC2)cc1
235 to 238 | CC(C)(C)OC(=O)NCCc1cccc(C(=O)Nc2ccc(Nc3cc(-c4cccc5c4oc4ccccc45)ncn3)cc2)c1
110 | CC(CC(O)(CNc1ccc2c(c1)COC2=O)C(F)(F)F)c1ccccc1 (stereo unspecified)
113 to 120 | N#CCc1cccc(CCc2ccccc2C(=O)O)c1

melting point [°C] | Structure (SMILES)
157 to 160 | COc1cccc(-c2nc(Nc3ccc(Cl)cc3)c3ccccc3n2)n1
67 to 68 | CCCN(CCC)C(=O)Cc1ccc(OCc2ccccc2)c([N+](=O)[O-])c1
91 to 93 | C=CC(=O)OCCN(CCOC(=O)C=C)c1ccc(N=Nc2ccc([N+](=O)[O-])cc2)cc1
125 | O=S(=O)(Nc1ccc(OCc2ccc3ccccc3n2)cc1)c1ccc(Cl)cc1
114 to 116 | CCC(Oc1cccc([N+](=O)[O-])c1)C(=O)NCc1ccccc1 (stereo unspecified)
132 to 134 | Nc1c(CCO)cccc1C(O)c1ccc(Cl)cc1 (stereo unspecified)
147 to 148 | O=C(O)c1cccc(-c2ccccc2F)c1
180 to 182 | CCOC(=O)C(=O)Cc1cc(=O)n(Cc2ccc(Cl)cc2)c2ccccc12
106 to 108 | Cc1csc(C(=O)CCc2ccccc2)c1OCCN(C)C
72 to 76 | CC(C)C[C@@H](CO)NC(=O)[C@H](Cc1c[nH]cn1)NC(=O)C(CNCCCc1ccccc1)Cc1cccc2ccccc12 (stereo partly specified)
125 to 126 | CC(=O)OC(=CC(=O)O)CC(=O)Nc1ccccc1
210 to 211 | O=C(O)Cc1ccc(N2Cc3ccccc3C2=O)cc1
126 to 136 | COc1ccc(C(=O)Nc2ccccc2CC(C)C2CCCCN2C)cc1 (stereo unspecified)
87 to 88 | O=C(Cl)c1ccc2ccccc2c1O
112 to 115 | CC(=O)OCc1ccc(N(c2ccccc2)c2ccc(C=CC=O)cc2)cc1
178 to 180 | CCCCCCCNC(=O)Nc1ccccc1C(=O)Nc1ccc(N(C)C)cc1
